Marks after values point to notes of the source that are not given here. Each block holds one compound with its values, some of them ahead of it.
Columns and labels:
[1] = molecular target: T1, recombinant human RPE65 and LRAT (Homo sapiens, UniProt Q16518); assay: In vitro isomerase inhibition assay, recombinant human enzyme system (HEK293 homogenate); format: biochemical
T1 construct: expressed in transfected cells; host or cells: HEK293 cell clone (homogenate); CRALBP was made in E. coli TOP10
T1 sequence (Q16518 2-533 limits assumed): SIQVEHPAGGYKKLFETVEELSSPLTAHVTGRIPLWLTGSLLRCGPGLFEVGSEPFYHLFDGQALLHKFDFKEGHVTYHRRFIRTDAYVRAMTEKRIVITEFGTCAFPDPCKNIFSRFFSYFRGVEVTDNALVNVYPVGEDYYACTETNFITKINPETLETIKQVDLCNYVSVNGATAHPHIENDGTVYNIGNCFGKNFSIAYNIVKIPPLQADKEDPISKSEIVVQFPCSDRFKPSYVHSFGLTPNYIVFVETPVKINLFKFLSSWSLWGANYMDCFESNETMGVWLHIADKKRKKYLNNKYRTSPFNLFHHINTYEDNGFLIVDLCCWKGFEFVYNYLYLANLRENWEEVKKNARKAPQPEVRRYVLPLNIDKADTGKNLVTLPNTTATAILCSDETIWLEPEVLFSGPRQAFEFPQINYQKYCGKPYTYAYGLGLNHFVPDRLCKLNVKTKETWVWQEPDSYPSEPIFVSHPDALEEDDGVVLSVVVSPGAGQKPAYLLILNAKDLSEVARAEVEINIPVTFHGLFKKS
Procedure: The concentration dependent effect of the compounds disclosed herein on the retinol isomerization reaction can also be evaluated with a recombinant human enzyme system. […] A homogenate of HEK293 cell clone expressing recombinant human RPE65 and LRAT were the source of the visual enzymes, and exogenous all-trans-retinol (about 20 μM) was used as the substrate. Recombinant human CRALBP (about 80 ug/mL) was added to enhance the formation of 11-cis-retinal. The 200 μL Bis-Tris Phosphate buffer (10 mM, pH 7.2) based reaction mixture also contains 0.5% BSA, and 1 mM NaPPi. In this assay, the reaction was carried out at 37° C. in duplicates for one hour and was terminated by addition of 300 μL methanol. The amount of reaction product, 11-cis-retinol, was measured by HPLC analysis following Heptane extraction of the reaction mixture. […] The ability of the numerous compounds disclosed herein to inhibit isomerization reaction is quantified and the respective IC50 value is determined. The tables below summarises the IC50 values of various compounds of the present invention determined by either of the above two methods. FIG. 1 is a representative figure of the IC50 determination of the compound of Example 2.

[2] = test system: ERG response in the eyes of mice; assay: Electroretinographic (ERG) study, C57BL/6 mice; format: in vivo; details: for b-wave ampl. 0.01 cd.s/m^2: dark-adapted ERG, in µV (unit assumed); for Vmax average: light-adapted ERG
Procedure: This example describes determining the effect of an alkyne derivative compound that is a visual cycle modulator on the magnitude of the ERG response in the eyes of mice after oral dosing of the animals with the compound. […]
Three groups of nine-week old mice (19-25 grams), both genders (strain C5 7BL/6, Charles River Laboratories, Wilmington, Mass.) are housed at room temperature, 72±4° F., and relative humidity of approximately 25%. Animals are housed in a 12-hour light/dark cycle environment, have free access to feed and drinking water and are checked for general health and well-being prior to use and during the study. Body weights are determined for a representative sample of mice prior to initiation of dosing. The average weight determined from this sampling is used to establish the dose for all mice in the study.
(§1) Each test compound is dissolved in the control solvent (EtOH), and diluted 1:10 ([…]) in corn oil (Crisco Pure Corn Oil, J.M. Smucker Company, Orrville, Ohio) to the desired dose (mg/kg) in the desired volume (˜0.1 mL/animal). The control vehicle is ethanol: corn oil (1:10 (0.9 ml/9 ml)). The treatment designations and animal assignments are described in Table 16.
(§2) Animals are dosed once orally by gavage, with the assigned vehicle control or test compounds during the light cycle (between 30 min and 3 hours 30 min after the beginning of the light cycle).
(§3) ERG recordings are made on dark-adapted and, subsequently (during the course of the same experiment), on light-adapted states. For the dark-adapted response, animals are housed in a dark-adapted environment for at least 1 hour prior to the recording, commencing at least 30 minutes after the start of the light cycle.
(§4) Pupils were dilated by placing a 5 microliter drop of mydriatic solution (tropicamide 0.5%) in the recorded eye. A mouse corneal monopolar contact lens electrode (Mayo Corporation, Inazawa, Aichi, Japan) was placed on the cornea, and a subcutaneous reference low profile needle 12 mm electrode (Grass Telefactor, W Warwick, R.I.) was placed medial from the eye. A ground needle electrode was placed in the tail. Data collection was obtained using an Espion E^2 (Diagnosys LLC, Littleton, Mass.) ERG recording system with Color Dome Ganzfeld stimulator. Full dark-adapted intensity-response function was determined following a brief white flash stimuli of 14 intensities ranging from 0.0001 cd·s/m^2 to 333 cd·s/m^2. Subsequently, full light-adapted intensity-response function was determined following a brief white flash stimuli of 9 intensities ranging from 0.33 cd·s/m^2 to 333 cd·s/m^2. Analysis of the obtained responses was done off-line. Intensity-response function determination was done by fitting a sigmoid function to the data (Naka K I, Rushton Wash., 1966; Naka K I, Rushton Wash., 1967).

[3] = test system: ERG response in the eyes of mice; assay: Electroretinographic (ERG) study, BALB/c mice; format: in vivo; design: Vmax average: unit not given beside the values; details: for b-wave ampl. 0.01 cd.s/m^2: dark-adapted ERG, in µV (unit assumed); for Vmax average: light-adapted ERG
Procedure: as §1, §2, §3, §4
A related example describes determining the effect of an alkyne derivative compound that is a visual cycle modulator on the level of ERG response in the eyes of mice after oral dosing of the animals with the compound. The experimental procedure is the same as that described in the previous example with the following exceptions: 12 to 16-week old BALB/c mice were used (body weights 16-25 g).

[4] = 4 h, dose 1 (mg/kg oral), aggregated average

inhibition of isomerase activity (figure legend) [1]: concentration-dependent inhibition | Change vs. control (%) ([2]; dark-adapted ERG b-wave, 4 h, dose 0.5 (mg/kg oral)): −50.65% | Change vs. control (%) ([2]; dark-adapted ERG b-wave, 4 h, dose 1 (mg/kg oral)): −94.04% | Change vs. control (%) ([2]; dark-adapted ERG b-wave, 25 h, dose 1 (mg/kg oral), compared to 4 hours vehicle): −19.93%** | b-wave ampl. 0.01 cd.s/m^2 ([2]; 4 h, dose 0.5 (mg/kg oral)): 265 | b-wave ampl. 0.01 cd.s/m^2 [2, 4]: 32* | b-wave ampl. 0.01 cd.s/m^2 ([2]; 25 h, dose 1 (mg/kg oral)): 430 | Change vs. control (%) ([2]; light-adapted ERG Vmax, 4 h, dose 0.5 (mg/kg oral)): 36.49% | Change vs. control (%) ([2]; light-adapted ERG Vmax, 4 h, dose 1 (mg/kg oral)): 77.03% | Change vs. control (%) ([2]; light-adapted ERG Vmax, 25 h, dose 1 (mg/kg oral), compared to 4 hours vehicle): 91.89%** | Vmax average ([2]; 4 h, dose 0.5 (mg/kg oral)): 202 | Vmax average [2, 4]: 262* | Vmax average ([2]; 25 h, dose 1 (mg/kg oral)): 284
SMILES: CCCC(O)(C#Cc1cccc(CCCN)c1)CCC [Example 2, 4-((3-(3-Aminopropyl)phenyl)ethynyl)heptan-4-ol]

Change vs. control (%) ([3]; dark-adapted ERG b-wave, 4 h, dose 0.2, BALB/c mice): −52.89% | Change vs. control (%) ([3]; dark-adapted ERG b-wave, 4 h, dose 0.3, BALB/c mice): −80.77% | Change vs. control (%) ([3]; dark-adapted ERG b-wave, 4 h, dose 0.6, BALB/c mice): −95.92% | Change vs. control (%) ([3]; dark-adapted ERG b-wave, 25 h, dose 0.3, BALB/c mice, compared to 4 hours vehicle): −55.75%** | b-wave ampl. 0.01 cd.s/m^2 ([3]; 4 h, dose 0.2, BALB/c mice): 263 | b-wave ampl. 0.01 cd.s/m^2 ([3]; 4 h, dose 0.3, BALB/c mice, aggregated average): 107* | b-wave ampl. 0.01 cd.s/m^2 ([3]; 4 h, dose 0.6, BALB/c mice): 23 | b-wave ampl. 0.01 cd.s/m^2 ([3]; 25 h, dose 0.3, BALB/c mice): 247 | Change vs. control (%) ([3]; light-adapted ERG Vmax, 4 h, dose 0.2, BALB/c mice): −0.13% | Change vs. control (%) ([3]; light-adapted ERG Vmax, 4 h, dose 0.3, BALB/c mice): 11.33% | Change vs. control (%) ([3]; light-adapted ERG Vmax, 4 h, dose 0.6, BALB/c mice): 6.34% | Change vs. control (%) ([3]; light-adapted ERG Vmax, 25 h, dose 0.3, BALB/c mice): 10.66% | Vmax average ([3]; 4 h, dose 0.2, BALB/c mice): 163 | Vmax average ([3]; 4 h, dose 0.3, BALB/c mice): 181 | Vmax average ([3]; 4 h, dose 0.6, BALB/c mice): 173 | Vmax average ([3]; 25 h, dose 0.3, BALB/c mice): 180
SMILES: CCCC(O)(C#Cc1cccc(C(O)CCN)c1)CCC (centres unmarked) [Example 19, 4-((3-(3-Amino-1-hydroxypropyl)phenyl)ethynyl)heptan-4-ol]

— patent US8492589B2, “Alkynyl phenyl derivative compounds for treating ophthalmic diseases and disorders” (Acucela Inc., priority 2007, dated 2013)
